Values after ≈ are worked out from the molar mass of the structure shown. Active and inactive are the calls of the source. The calls are words filed in the database; no cut-off is given here.
What was measured:
Streptococcus pneumoniae [1] = experiment: Antibacterial activity against Streptococcus pneumoniae CL2883 at 64 ug/mL; assay type: functional, organism-based
Staphylococcus aureus [2] = experiment: Antibacterial activity against Staphylococcus aureus Smith at 64 ug/mL; assay type: functional, organism-based
Staphylococcus aureus [3] = experiment: Inhibition of FAS2 in Staphylococcus aureus assessed as inhibition of fatty acid synthesis at 167 ug/ml
Enterococcus faecalis [4] = experiment: Antibacterial activity against Enterococcus faecalis CL8516 at 64 ug/mL; assay type: functional, organism-based
[5] = Inhibition of FAS2 in Staphylococcus aureus assessed as inhibition of fatty acid synthesis by scintillation counting
Streptococcus pneumoniae [6] = experiment: Antibacterial activity against Streptococcus pneumoniae CL2883; assay type: functional
Enterococcus faecalis [7] = experiment: Antibacterial activity against Enterococcus faecalis CL8516; assay type: functional
[8] = Inhibition of FabH in Staphylococcus aureus assessed as inhibition of fatty acid synthesis
Staphylococcus aureus [9] = experiment: Antibacterial activity against Staphylococcus aureus assessed as minimum concentration required to differential zone of clearance between antisense plate compared to control; assay type: functional
Staphylococcus aureus [10] = experiment: Antibacterial activity against Staphylococcus aureus Smith; assay type: functional
[11] = Inhibition of Escherichia coli FabF C163F

Compound	Activity (Staphylococcus aureus [3])	IC50 [5] [µg/mL]	Activity (Streptococcus pneumoniae [1])	Activity (Staphylococcus aureus [2])	Activity (Enterococcus faecalis [4])	Activity (Staphylococcus aureus [9]) [µg/mL]	further results
CC12C[C@@]34C=CC(=O)[C@@](C)(CCC(=O)Nc5c(O)ccc(C(=O)O)c5O)C3[C@H](CC1C4)O2 (stereo partly drawn) [PLATENSIMYCIN]	–	0.5 (≈ 1.13 µM)	–	–	–	–	–
C=C1C[C@@]23C=CC(=O)[C@@](C)(CCC(=O)Nc4c(O)ccc(C(=O)O)c4O)C2C[C@@H]1C[C@H]3O (stereo partly drawn)	–	7.12 (≈ 16.1 µM)	–	–	–	20	MIC (Streptococcus pneumoniae [6]): > 64 µg/mL; MIC (Enterococcus faecalis [7]): 8 µg/mL (≈ 18.1 µM); IC50 [8]: 15 µg/mL (≈ 34 µM); MIC (Staphylococcus aureus [10]): 32 µg/mL (≈ 72.5 µM)
C=C1C[C@@]23C=CC(=O)[C@@](C)(CCC(=O)Nc4c(O)ccc(C(=O)O)c4O)[C@@H]2C[C@@H]1CC3 [PLATENCIN]	–	12 (≈ 28.2 µM)	–	–	–	0.2	IC50 [11]: 113 nM

Further lines, with some results ahead:

Activity (Staphylococcus aureus [3])	IC50 [5] [µg/mL]	Compound	Activity (Streptococcus pneumoniae [1])	Activity (Staphylococcus aureus [2])	Activity (Enterococcus faecalis [4])	Activity (Staphylococcus aureus [9]) [µg/mL]	further results
inactive	–	C=C1C[C@@]23C=CC(=O)[C@@](C)(CCC(=O)OC)C2C[C@@H]1C[C@H]3O (stereo partly drawn)	inactive	inactive	inactive	–	–
inactive	–	C=C1C[C@@]23C=CC(=O)[C@@](C)(CCC(=O)Nc4c(O)ccc(C(=O)OC)c4O)C2C[C@@H]1C[C@H]3O (stereo partly drawn)	inactive	inactive	inactive	–	–

Source: ChEMBL document CHEMBL1153069, “Isolation, enzyme-bound structure and antibacterial activity of platencin A1 from Streptomyces platensis” (Bioorg Med Chem Lett, 2009)
